Results as given in US8846933B2, “N-link hydroxamic acid derivatives useful as antibacterial agents” (Pfizer Inc., priority 2009, dated 2014).

Experiments:
[1] = test system: Pseudomonas aeruginosa UI-18: Wild-type (PA-7); test: MIC determination (CLSI), strain PA-7; format: cell-based; details: strain PA-7, unit assumed
Outline: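 MIC determined by broth dilution per CLSI M7-A7 guidelines with M100-S18 interpretive standards. Test organism: wild-type Pseudomonas aeruginosa UI-18, designated PA-7.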

[2] = test system: Escherichia coli EC-1: VOGEL, mouse virulent; test: MIC determination (CLSI), strain EC-1; format: cell-based; details: strain EC-1, unit assumed
Outline: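 The mouse-virulent VOGEL isolate of E. coli, EC-1, served as test organism. Minimum inhibitory concentration was measured by CLSI dilution methodology (M7-A7; M100-S18 standards).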

[3] = generated in the same manner as in Table 4

SMILES	PA-7 (MIC) [1, 3] [µg/mL]	EC-1 (MIC) [2, 3] [µg/mL]	PA-7 (MIC) [1] [µg/mL]	EC-1 (MIC) [2] [µg/mL]
CN1Cc2ccc(-c3ccn(CCC(C)(C(=O)NO)S(C)(=O)=O)c(=O)c3)cc2C1=O (centres unmarked) [Example 162, N-hydroxy-2-methyl-4-[4-(2-methyl-3-oxo-2,3-dihydro-1H-isoindol-5-yl)-2-oxopyridin-1(2H)-yl]-2-(methylsulfonyl)butanamide]	> 64	> 64		
CC(CCn1ccc(-c2cccc(Cl)c2Cl)cc1=O)(C(=O)NO)S(C)(=O)=O (centres unmarked) [Example 163, 4-[4-(2,3-dichlorophenyl)-2-oxopyridin-1(2H)-yl]-N-hydroxy-2-methyl-2-(methylsulfonyl)butanamide]	1	0.5		
CC(CCn1ccc(-c2ccc3c(c2)CCO3)cc1=O)(C(=O)NO)S(C)(=O)=O (centres unmarked) [Example 164, 4-[4-(2,3-dihydro-1-benzofuran-5-yl)-2-oxopyridin-1(2H)-yl]-N-hydroxy-2-methyl-2-(methylsulfonyl)butanamide]	32	8		
CC(CCn1ccc(-c2cnn(Cc3ccccc3)c2)cc1=O)(C(=O)NO)S(C)(=O)=O (centres unmarked) [Example 165, 4-[4-(1-benzyl-1H-pyrazol-4-yl)-2-oxopyridin-1(2H)-yl]-N-hydroxy-2-methyl-2-(methylsulfonyl)butanamide]	> 64	> 64		
COc1cc(F)ccc1-c1ccn(CCC(C)(C(=O)NO)S(C)(=O)=O)c(=O)c1 (centres unmarked) [Example 166, 4-[4-(4-fluoro-2-methoxyphenyl)-2-oxopyridin-1(2H)-yl]-N-hydroxy-2-methyl-2-(methylsulfonyl)butanamide]	8	16		
CC(=O)c1ccc(-c2ccn(CCC(C)(C(=O)NO)S(C)(=O)=O)c(=O)c2)s1 (centres unmarked) [Example 167, 4-[4-(5-acetyl-2-thienyl)-2-oxopyridin-1(2H)-yl]-N-hydroxy-2-methyl-2-(methylsulfonyl)butanamide]	16	16		
CC(C)Oc1ncccc1-c1ccn(CCC(C)(C(=O)NO)S(C)(=O)=O)c(=O)c1 (centres unmarked) [Example 168, N-hydroxy-4-(2-isopropoxy-2′-oxo-3,4′-bipyridin-1′(2′H)-yl)-2-methyl-2-(methylsulfonyl)butanamide]	> 64	> 64		
CC(CCn1ccc(-c2cccc(C#N)c2)cc1=O)(C(=O)NO)S(C)(=O)=O (centres unmarked) [Example 169, 4-[4-(3-cyanophenyl)-2-oxopyridin-1(2H)-yl]-N-hydroxy-2-methyl-2-(methylsulfonyl)butanamide]	64	> 64		
COc1ccc(-c2ccn(CCC(C)(C(=O)NO)S(C)(=O)=O)c(=O)c2)cc1 (centres unmarked) [Example 170, N-hydroxy-4-[4-(4-methoxyphenyl)-2-oxopyridin-1(2H)-yl]-2-methyl-2-(methylsulfonyl)butanamide]	1	1		
Cc1ccc(F)cc1-c1ccn(CCC(C)(C(=O)NO)S(C)(=O)=O)c(=O)c1 (centres unmarked) [Example 171, 4-[4-(5-fluoro-2-methylphenyl)-2-oxopyridin-1(2H)-yl]-N-hydroxy-2-methyl-2-(methylsulfonyl)butanamide]	32	64		
Cn1ccnc1-c1cccc(-c2ccn(CCC(C)(C(=O)NO)S(C)(=O)=O)c(=O)c2)c1 (centres unmarked) [Example 172, N-hydroxy-2-methyl-4-{4-[3-(1-methyl-1H-imidazol-2-yl)phenyl]-2-oxopyridin-1(2H)-yl}-2-(methylsulfonyl)butanamide]	> 64	> 64		
COc1ccc(F)cc1-c1ccn(CCC(C)(C(=O)NO)S(C)(=O)=O)c(=O)c1 (centres unmarked) [Example 173, 4-[4-(5-fluoro-2-methoxyphenyl)-2-oxopyridin-1(2H)-yl]-N-hydroxy-2-methyl-2-(methylsulfonyl)butanamide]	64	64		
CC(CCn1ccc(-c2ccc(C(F)(F)F)cc2C(F)(F)F)cc1=O)(C(=O)NO)S(C)(=O)=O (centres unmarked) [Example 174, 4-{4-[2,4-bis(trifluoromethyl)phenyl]-2-oxopyridin-1(2H)-yl}-N-hydroxy-2-methyl-2-(methylsulfonyl)butanamide]	> 64	64		
CC(CCn1ccc(-c2ccco2)cc1=O)(C(=O)NO)S(C)(=O)=O (centres unmarked) [Example 175, 4-[4-(2-furyl)-2-oxopyridin-1(2H)-yl]-N-hydroxy-2-methyl-2-(methylsulfonyl)butanamide]	16	64		
CC(CCn1ccc(-c2ccc3cc[nH]c3c2)cc1=O)(C(=O)NO)S(C)(=O)=O (centres unmarked) [Example 176, N-hydroxy-4-[4-(1H-indol-6-yl)-2-oxopyridin-1(2H)-yl]-2-methyl-2-(methylsulfonyl)butanamide]	4	8		
CCNC(=O)c1ccc(-c2ccn(CCC(C)(C(=O)NO)S(C)(=O)=O)c(=O)c2)cc1F (centres unmarked) [Example 177, N-ethyl-2-fluoro-4-{1-[4-(hydroxyamino)-3-methyl-3-(methylsulfonyl)-4-oxobutyl]-2-oxo-1,2-dihydropyridin-4-yl}benzamide]	64	> 64		

SMILES	PA-7 (MIC) [1, 3] [µg/mL]	EC-1 (MIC) [2, 3] [µg/mL]	PA-7 (MIC) [1] [µg/mL]	EC-1 (MIC) [2] [µg/mL]
Cc1cccc(-c2ccn(CCC(C)(C(=O)NO)S(C)(=O)=O)c(=O)c2)c1 (centres unmarked) [Example 178, N-hydroxy-2-methyl-4-[4-(3-methylphenyl)-2-oxopyridin-1(2H)-yl]-2-(methylsulfonyl)butanamide]	2	4		
CN1Cc2cc(-c3ccn(CCC(C)(C(=O)NO)S(C)(=O)=O)c(=O)c3)ccc2C1=O (centres unmarked) [Example 179, N-hydroxy-2-methyl-4-[4-(2-methyl-1-oxo-2,3-dihydro-1H-isoindol-5-yl)-2-oxopyridin-1(2H)-yl]-2-(methylsulfonyl)butanamide]	> 64	> 64		
COc1ccc(-c2ccn(CCC(C)(C(=O)NO)S(C)(=O)=O)c(=O)c2)cc1F (centres unmarked) [Example 180, 4-[4-(3-fluoro-4-methoxyphenyl)-2-oxopyridin-1(2H)-yl]-N-hydroxy-2-methyl-2-(methylsulfonyl)butanamide]	8	2		
CC(CCn1ccc(-c2ccc(OCC3CCCCC3)nc2)cc1=O)(C(=O)NO)S(C)(=O)=O (centres unmarked) [Example 181, 4-[6-(cyclohexylmethoxy)-2′-oxo-3,4′-bipyridin-1′(2′H)-yl]-N-hydroxy-2-methyl-2-(methylsulfonyl)butanamide]	4	0.125		
COc1ncccc1-c1ccn(CCC(C)(C(=O)NO)S(C)(=O)=O)c(=O)c1 (centres unmarked) [Example 182, N-hydroxy-4-(2-methoxy-2′-oxo-3,4′-bipyridin-1′(2′H)-yl)-2-methyl-2-(methylsulfonyl)butanamide]	64	> 64		
CC(CCn1ccc(-c2ccccc2C(F)(F)F)cc1=O)(C(=O)NO)S(C)(=O)=O (centres unmarked) [Example 183, N-hydroxy-2-methyl-2-(methylsulfonyl)-4-{2-oxo-4-[2-(trifluoromethyl)phenyl]pyridin-1(2H)-yl}butanamide]	32	32		
CCOc1ccc(-c2ccn(CCC(C)(C(=O)NO)S(C)(=O)=O)c(=O)c2)cc1F (centres unmarked) [Example 184, 4-[4-(4-ethoxy-3-fluorophenyl)-2-oxopyridin-1(2H)-yl]-N-hydroxy-2-methyl-2-(methylsulfonyl)butanamide]			2	0.5
CCOc1ccc(-c2ccn(CCC(C)(C(=O)NO)S(C)(=O)=O)c(=O)c2)cn1 (centres unmarked) [Example 185, 4-(6-ethoxy-2′-oxo-3,4′-bipyridin-1′(2′H)-yl)-N-hydroxy-2-methyl-2-(methylsulfonyl)butanamide]			4	2
CC(CCn1ccc(-c2ccc(F)cc2F)cc1=O)(C(=O)NO)S(C)(=O)=O (centres unmarked) [Example 186, 4-[4-(2,4-difluorophenyl)-2-oxopyridin-1(2H)-yl]-N-hydroxy-2-methyl-2-(methylsulfonyl)butanamide]			2	2
CC(CCn1ccc(-c2cccc(F)c2)cc1=O)(C(=O)NO)S(C)(=O)=O (centres unmarked) [Example 187, 4-[4-(3-fluorophenyl)-2-oxopyridin-1(2H)-yl]-N-hydroxy-2-methyl-2-(methylsulfonyl)butanamide]			2	8
CNC(=O)c1ccc(-c2ccn(CCC(C)(C(=O)NO)S(C)(=O)=O)c(=O)c2)cc1 (centres unmarked) [Example 188, 4-{1-[4-(hydroxyamino)-3-methyl-3-(methylsulfonyl)-4-oxobutyl]-2-oxo-1,2-dihydropyridin-4-yl}-N-methylbenzamide]			> 64	> 64
CC(CCn1ccc(-c2cccc3cccnc23)cc1=O)(C(=O)NO)S(C)(=O)=O (centres unmarked) [Example 189, N-hydroxy-2-methyl-2-(methylsulfonyl)-4-(2-oxo-4-quinolin-8-ylpyridin-1(2H)-yl)butanamide]			64	> 64
Cc1ccc(-c2ccn(CCC(C)(C(=O)NO)S(C)(=O)=O)c(=O)c2)cc1 (centres unmarked) [Example 190, N-hydroxy-2-methyl-4-[4-(4-methylphenyl)-2-oxopyridin-1(2H)-yl]-2-(methylsulfonyl)butanamide]			1	1
COCc1ccccc1-c1ccn(CCC(C)(C(=O)NO)S(C)(=O)=O)c(=O)c1 (centres unmarked) [Example 191, N-hydroxy-4-{4-[2-(methoxymethyl)phenyl]-2-oxopyridin-1(2H)-yl}-2-methyl-2-(methylsulfonyl)butanamide]			> 64	> 64
CC(CCn1ccc(-c2ccc(F)cc2)cc1=O)(C(=O)NO)S(C)(=O)=O (centres unmarked) [Example 192, 4-[4-(4-fluorophenyl)-2-oxopyridin-1(2H)-yl]-N-hydroxy-2-methyl-2-(methylsulfonyl)butanamide]			2	8
